Legend:
Assay in all cases: biochemical
Design in all cases: in vitro kinase selectivity panel, protein and lipid kinases, single concentration, ATP at Km
Settings in all cases: ATP at Km
CHK2(h) = biological target: T1, CHK2(h) (Homo sapiens, UniProt O96017)
T1 construct: gene CHEK2
Experimental: (§1) CRT0066101 was described previously ([48]) and was purchased for this study from Tocris, with a purity of 99.9%. CRT0066101 (XX-209) and compound XX-050 were synthesized as previously described ([68]). CRT0066051 (Y-095) was also synthesized as previously described ([69]). […] CRT0066101 can also be obtained in larger quantities from Ximbio. Inhibitors were tested in in vitro PKD kinase assays and cellular assays on PANC1 cells as previously described ([48]). The selectivity of the three PKD inhibitors was determined against a panel of protein and lipid kinases by Eurofins and the MRC PPU International Centre for Kinase Profiling (http://www.kinase-screen.mrc.ac.uk), respectively. Each inhibitor was tested at a single concentration of 1 μM and at an ATP concentration equivalent to the Km for each kinase. Having shown that HRV infection appears to activate PKD, we went on to explore the influence of chemical inhibitors of PKD on HRV replication. The compound CRT0066101 is a specific and potent PKD inhibitor that has been used in studies exploring its potential as an anticancer target ([48], [51]). This inhibitor has a 50% inhibitory concentration (IC50) of 1 nM against purified PKD in biochemical assays and a 50% effective concentration (EC50) of 1 μM in a cell-based assay (Table 1). We pretreated HeLa cells with increasing concentrations of the drug for 1 h followed by infection with HRV16. Viral replication was subsequently measured at 6 hpi by quantitative real-time PCR (qRT-PCR) (Fig. 2A) and by Western blotting using an antibody against the viral nonstructural protein 2C (Fig. 2B). […] Furthermore, we tested two novel and structurally different PKD inhibitors (CRT0066051 and XX-050) (Table 1) and confirmed that they too inhibited HRV 2C expression although with different potencies (Fig. 2D). Kinase selectivity profiling of all three PKD inhibitors was performed against a panel of protein and lipid kinases at a drug concentration of 1 μM and at an ATP concentration equivalent to the Km of each kinase (see Table S1 in the supplemental material). […] Since PKD is known to be involved in regulating the architecture of the Golgi apparatus, we confirmed the pharmacodynamic effect of these inhibitors by demon

PKCθ(h) = biological target: T2, PKCθ(h) (Homo sapiens, UniProt Q04759)
T2 construct: gene PRKCQ
Experimental: as §1

DGKZ = DGKZ (Homo sapiens, UniProt Q13574)
DGKZ, sequence (Q13574 whole entry): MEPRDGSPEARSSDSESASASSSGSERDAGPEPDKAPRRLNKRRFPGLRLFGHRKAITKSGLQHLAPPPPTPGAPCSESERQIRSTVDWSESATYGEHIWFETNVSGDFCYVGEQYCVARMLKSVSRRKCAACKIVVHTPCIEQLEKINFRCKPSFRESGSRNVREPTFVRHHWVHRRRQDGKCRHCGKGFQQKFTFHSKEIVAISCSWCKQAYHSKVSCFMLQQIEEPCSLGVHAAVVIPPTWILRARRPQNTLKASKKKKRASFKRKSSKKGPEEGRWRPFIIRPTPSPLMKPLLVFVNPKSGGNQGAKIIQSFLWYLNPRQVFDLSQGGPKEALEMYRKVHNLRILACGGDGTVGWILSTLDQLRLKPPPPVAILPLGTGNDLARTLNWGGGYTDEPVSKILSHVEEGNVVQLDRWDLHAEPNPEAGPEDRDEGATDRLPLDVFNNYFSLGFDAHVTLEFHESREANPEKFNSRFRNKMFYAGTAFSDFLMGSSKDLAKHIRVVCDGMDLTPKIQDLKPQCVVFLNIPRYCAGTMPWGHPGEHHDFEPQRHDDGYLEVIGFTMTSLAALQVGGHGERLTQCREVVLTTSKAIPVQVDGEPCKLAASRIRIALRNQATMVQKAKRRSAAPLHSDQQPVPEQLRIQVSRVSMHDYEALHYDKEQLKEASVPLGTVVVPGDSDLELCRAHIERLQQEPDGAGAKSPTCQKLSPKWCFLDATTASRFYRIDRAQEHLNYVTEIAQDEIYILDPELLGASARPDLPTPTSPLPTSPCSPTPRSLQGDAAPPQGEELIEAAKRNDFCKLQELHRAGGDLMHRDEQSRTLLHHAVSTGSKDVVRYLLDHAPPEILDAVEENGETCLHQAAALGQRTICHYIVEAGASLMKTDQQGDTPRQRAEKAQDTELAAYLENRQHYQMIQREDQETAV
Experimental: as §1

MAPKAP-K2(h) = biological target: T3, MAPKAP-K2(h) (Homo sapiens, UniProt P49137)
T3 construct: gene MAPKAPK2
T3 sequence (P49137 whole entry): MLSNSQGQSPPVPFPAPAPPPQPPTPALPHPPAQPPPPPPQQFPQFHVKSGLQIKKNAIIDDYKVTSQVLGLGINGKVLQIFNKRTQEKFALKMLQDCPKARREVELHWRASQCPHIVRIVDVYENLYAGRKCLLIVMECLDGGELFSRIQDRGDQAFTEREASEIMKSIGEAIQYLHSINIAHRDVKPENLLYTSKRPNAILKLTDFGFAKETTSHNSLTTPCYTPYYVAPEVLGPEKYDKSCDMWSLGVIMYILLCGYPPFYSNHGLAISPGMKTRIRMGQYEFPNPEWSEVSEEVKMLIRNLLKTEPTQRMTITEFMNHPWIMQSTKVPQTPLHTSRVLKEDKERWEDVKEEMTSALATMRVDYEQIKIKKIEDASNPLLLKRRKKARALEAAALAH
Experimental: as §1

cKit(V560G)(h) = biological target: T4, cKit(V560G)(h) (Homo sapiens, UniProt P10721, V560G)
T4 construct: gene KIT
Experimental: as §1

PKCβII(h) = biological target: T5, PKCβII(h) (Homo sapiens, UniProt P05771)
T5 construct: gene PRKCB; isoform beta II
Experimental: as §1

PAK4(h) = PAK4(h) (Homo sapiens, UniProt O96013)
PAK4(h), sequence (O96013 whole entry): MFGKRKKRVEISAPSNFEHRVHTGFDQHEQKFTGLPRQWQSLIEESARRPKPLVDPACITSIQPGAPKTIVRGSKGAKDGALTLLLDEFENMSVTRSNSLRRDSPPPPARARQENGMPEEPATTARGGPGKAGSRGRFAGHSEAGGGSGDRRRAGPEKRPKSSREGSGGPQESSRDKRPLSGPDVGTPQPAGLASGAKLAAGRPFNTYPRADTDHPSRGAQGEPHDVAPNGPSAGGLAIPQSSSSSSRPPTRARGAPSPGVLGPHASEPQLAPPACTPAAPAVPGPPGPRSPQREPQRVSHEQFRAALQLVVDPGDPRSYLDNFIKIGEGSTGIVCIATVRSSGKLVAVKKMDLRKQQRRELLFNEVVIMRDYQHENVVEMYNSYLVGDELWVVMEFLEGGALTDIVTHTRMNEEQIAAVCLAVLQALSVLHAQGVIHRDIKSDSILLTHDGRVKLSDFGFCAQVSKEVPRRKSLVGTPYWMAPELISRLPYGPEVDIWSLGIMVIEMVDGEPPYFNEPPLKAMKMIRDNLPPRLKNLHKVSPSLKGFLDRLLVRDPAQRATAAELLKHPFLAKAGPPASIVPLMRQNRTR
Experimental: as §1

DDR2(h) = DDR2(h) (Homo sapiens, UniProt Q16832)
DDR2(h), sequence (Q16832 whole entry): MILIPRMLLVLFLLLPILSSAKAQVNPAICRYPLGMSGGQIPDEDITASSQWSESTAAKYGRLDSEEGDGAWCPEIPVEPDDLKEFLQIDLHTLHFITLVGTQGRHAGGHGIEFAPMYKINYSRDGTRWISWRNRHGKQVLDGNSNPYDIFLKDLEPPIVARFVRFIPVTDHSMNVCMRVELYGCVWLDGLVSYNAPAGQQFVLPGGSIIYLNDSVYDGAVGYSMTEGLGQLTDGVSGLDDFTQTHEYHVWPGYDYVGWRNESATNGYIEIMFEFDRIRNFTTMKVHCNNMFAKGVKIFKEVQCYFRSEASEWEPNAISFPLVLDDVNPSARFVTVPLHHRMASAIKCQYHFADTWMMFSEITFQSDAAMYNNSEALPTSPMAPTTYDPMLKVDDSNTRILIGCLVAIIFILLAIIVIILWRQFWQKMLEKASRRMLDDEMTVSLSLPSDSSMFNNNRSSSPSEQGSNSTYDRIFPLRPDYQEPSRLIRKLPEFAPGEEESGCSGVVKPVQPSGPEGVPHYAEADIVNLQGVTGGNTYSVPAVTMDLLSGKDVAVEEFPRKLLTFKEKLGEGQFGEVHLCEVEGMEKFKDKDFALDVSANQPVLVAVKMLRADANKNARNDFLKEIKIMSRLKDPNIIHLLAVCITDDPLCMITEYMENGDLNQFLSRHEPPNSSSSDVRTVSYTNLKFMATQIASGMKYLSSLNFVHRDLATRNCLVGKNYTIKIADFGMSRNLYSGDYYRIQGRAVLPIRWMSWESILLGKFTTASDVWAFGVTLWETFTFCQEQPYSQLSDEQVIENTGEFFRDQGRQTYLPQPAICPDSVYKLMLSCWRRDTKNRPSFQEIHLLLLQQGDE
Experimental: as §1

NEK2(h) = NEK2(h) (Homo sapiens, UniProt P51955)
Experimental: as §1

BRK(h) = biological target: T6, BRK(h) (Homo sapiens, UniProt Q13882)
T6 construct: gene PTK6
Experimental: as §1

DGKG = DGKG (Homo sapiens, UniProt P49619)
DGKG, sequence (P49619 whole entry): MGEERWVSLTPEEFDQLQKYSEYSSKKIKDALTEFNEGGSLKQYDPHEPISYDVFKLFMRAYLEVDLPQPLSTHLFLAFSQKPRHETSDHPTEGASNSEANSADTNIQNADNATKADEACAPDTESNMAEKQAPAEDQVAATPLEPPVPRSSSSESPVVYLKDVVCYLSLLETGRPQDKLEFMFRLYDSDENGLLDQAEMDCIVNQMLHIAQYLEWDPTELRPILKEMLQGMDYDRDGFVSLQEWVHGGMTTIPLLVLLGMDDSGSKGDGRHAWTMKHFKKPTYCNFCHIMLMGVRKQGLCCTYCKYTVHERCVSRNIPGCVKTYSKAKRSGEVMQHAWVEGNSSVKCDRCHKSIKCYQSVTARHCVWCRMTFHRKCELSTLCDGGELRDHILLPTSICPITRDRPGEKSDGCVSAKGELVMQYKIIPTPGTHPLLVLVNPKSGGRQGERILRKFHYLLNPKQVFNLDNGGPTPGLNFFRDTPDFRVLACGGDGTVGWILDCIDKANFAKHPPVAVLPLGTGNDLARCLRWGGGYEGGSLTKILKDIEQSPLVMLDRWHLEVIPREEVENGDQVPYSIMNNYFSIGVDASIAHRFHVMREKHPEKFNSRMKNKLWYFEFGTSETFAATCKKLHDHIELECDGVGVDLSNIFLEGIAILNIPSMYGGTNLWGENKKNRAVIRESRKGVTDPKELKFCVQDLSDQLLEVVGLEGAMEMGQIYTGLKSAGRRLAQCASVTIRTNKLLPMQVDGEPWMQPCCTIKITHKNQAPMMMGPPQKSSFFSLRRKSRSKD
Experimental: as §1

EGFR(h) = EGFR(h) (Homo sapiens, UniProt P00533)
Experimental: as §1

PDK1(h) = biological target: T7, PDK1(h) (Homo sapiens, UniProt O15530)
T7 construct: gene PDPK1
T7 sequence (O15530 whole entry): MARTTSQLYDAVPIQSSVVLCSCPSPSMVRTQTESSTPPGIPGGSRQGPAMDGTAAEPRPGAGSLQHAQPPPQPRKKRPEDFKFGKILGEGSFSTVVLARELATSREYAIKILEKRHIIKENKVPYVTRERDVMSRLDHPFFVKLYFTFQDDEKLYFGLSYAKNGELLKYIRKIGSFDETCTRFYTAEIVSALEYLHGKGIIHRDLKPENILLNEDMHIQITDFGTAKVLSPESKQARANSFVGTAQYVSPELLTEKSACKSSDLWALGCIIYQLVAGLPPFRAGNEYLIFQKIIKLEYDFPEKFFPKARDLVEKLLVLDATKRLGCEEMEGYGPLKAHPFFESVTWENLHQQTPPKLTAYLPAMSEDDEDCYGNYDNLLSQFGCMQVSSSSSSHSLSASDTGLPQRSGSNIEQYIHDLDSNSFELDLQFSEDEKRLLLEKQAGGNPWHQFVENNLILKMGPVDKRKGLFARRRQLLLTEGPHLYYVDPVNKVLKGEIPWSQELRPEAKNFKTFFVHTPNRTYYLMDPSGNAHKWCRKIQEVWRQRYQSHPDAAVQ
Experimental: as §1

CaMKIV(h) = biological target: T8, CaMKIV(h) (Homo sapiens, UniProt Q16566)
T8 construct: gene CAMK4
Experimental: as §1

PIP4K2A = PIP4K2A (Homo sapiens, UniProt P48426)
Experimental: as §1

Bmx(h) = Bmx(h) (Homo sapiens, UniProt P51813)
Bmx(h), sequence (P51813 whole entry): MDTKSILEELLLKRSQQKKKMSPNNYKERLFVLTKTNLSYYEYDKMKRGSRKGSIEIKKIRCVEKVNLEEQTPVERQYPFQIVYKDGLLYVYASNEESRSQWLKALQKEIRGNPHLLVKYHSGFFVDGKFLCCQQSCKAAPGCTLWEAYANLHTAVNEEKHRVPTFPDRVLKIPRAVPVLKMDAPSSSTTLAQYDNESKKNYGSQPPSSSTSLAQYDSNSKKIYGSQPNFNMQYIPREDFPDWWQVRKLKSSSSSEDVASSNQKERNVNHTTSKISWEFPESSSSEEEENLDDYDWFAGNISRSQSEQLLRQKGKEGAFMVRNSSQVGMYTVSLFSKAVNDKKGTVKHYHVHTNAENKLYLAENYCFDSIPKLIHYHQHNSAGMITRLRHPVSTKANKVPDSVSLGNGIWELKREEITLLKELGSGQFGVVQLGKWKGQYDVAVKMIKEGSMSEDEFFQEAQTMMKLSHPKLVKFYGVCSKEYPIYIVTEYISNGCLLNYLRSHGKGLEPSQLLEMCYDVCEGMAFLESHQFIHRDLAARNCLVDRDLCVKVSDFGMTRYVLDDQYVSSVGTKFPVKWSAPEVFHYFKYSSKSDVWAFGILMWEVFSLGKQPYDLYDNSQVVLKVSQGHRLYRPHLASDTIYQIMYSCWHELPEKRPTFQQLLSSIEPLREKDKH
Experimental: as §1

Blk(m) = Blk(m) (Mus musculus, UniProt P16277)
Experimental: as §1

Abl(T315I)(h) = biological target: T9, Abl(T315I)(h) (Homo sapiens, UniProt P00519, T315I)
T9 construct: gene ABL1
Experimental: as §1

CC[C@@H](N)CNc1ccnc(-c2cc(-c3cnn(C)c3)ccc2O)n1 [CRT0066101] gave an inhibition at 1 µM (CHK2(h)) of 26%, an inhibition at 1 µM (PKCθ(h)) of 6% and an inhibition at 1 µM (DGKZ) of -1%. The inhibition at 1 µM (MAPKAP-K2(h)) was -9%, the inhibition at 1 µM (cKit(V560G)(h)) was 24% and the inhibition at 1 µM (PKCβII(h)) was -1%. For the same compound, the inhibition at 1 µM (PAK4(h)) was 4%, the inhibition at 1 µM (DDR2(h)) was -3% and the inhibition at 1 µM (NEK2(h)) was 0%. The inhibition at 1 µM (BRK(h)) was 17%, the inhibition at 1 µM (DGKG) was -3% and the inhibition at 1 µM (EGFR(h)) was -6%. For the same compound, the inhibition at 1 µM (PDK1(h)) was -17%, the inhibition at 1 µM (CaMKIV(h)) was 26% and the inhibition at 1 µM (PIP4K2A) was -22%. It also gave an inhibition at 1 µM (Bmx(h)) of 26%, an inhibition at 1 µM (Blk(m)) of 12% and an inhibition at 1 µM (Abl(T315I)(h)) of 5%.
